Tested on: HCV-JFH1
Assay: Test of neutralization by interferon alfa of infection of human intrahepatic fibroblasts with HCV-JFH1
Format: cell-based, hepatitis C virus
Conditions: human intrahepatic fibroblasts preincubated 1 h at 37° C. with 500 U/ml of interferon alfa, infected at 0.1 FFU per cell; FIG. 8
Procedure: The intrahepatic fibroblasts were infected one day after being put in culture with HCV-JFH1 to a multiplicity of infection of 0.1 FFU per cell. After incubation overnight at 37° C., the cellular monolayers were washed three times with phosphate-buffered saline and then grown in standard conditions (Aoudjehane et al., Lab. Invest., 88: 973-985, 2008) in DMEM medium (Gibco) 10% FCS in the presence of penicillin and streptomycin (1%) as well as pyruvate (1%).
In order to determine whether the HCV genome is capable of replicating in intrahepatic fibroblasts inoculated with HCV-JFH1, the strands of positive RNA (genomic RNA) and the strands of negative RNA (antisense RNA) were quantified. For this purpose, the cells were taken on D3, D6 and D9 post-infection, washed in PBS buffer, then prepared using the “RNeasy minikit” extraction kit (QIAGEN S.A, Courtaboeuf, France) according to the supplier's recommendations, the cells having been lysed in 300 μl of buffer for 3.10^5 cells. The intracellular RNAs were quantified by quantitative RT-PCR specific to each strand as described by Carriere et al. (J. Med. Virol., 79: 155-160, 2007). […]

## interferon alfa
  amount of negative-strand HCV RNA: decrease
  amount of positive-strand HCV RNA: decrease

— patent US20130101986A1, “In Vitro Method for obtaining Intrahepatic Fibroblasts Infected with Hepatitis C Virus” (priority 2009, published 2013)
